Test results published in publication PMC4326127, “Collagen Inhibitory Peptide R1R2 Mediates Vascular Remodeling by Decreasing Inflammation and Smooth Muscle Cell Activation” (PLoS ONE, 2015).

What was measured:
[1] = test system: binding of FN to collagen type I; test: Solid-phase binding assay (competitive ELISA) of FN to collagen; parameters: species or system human FN; rat collagen type I; details: 4 nM FN incubated with peptide at 4°C overnight, then on wells coated with 10 μg/ml collagen I overnight at 37°C; anti-FN/HRP, ABTS, A405
Description: Human FN and rat collagen type I for competitive ELISA were purchased from Sigma-Aldrich (St. Louis, MO).
The FN-peptide solutions were added to collagen or BSA-coated wells, and the plates were incubated overnight at 37°C. The wells were washed and a rabbit anti-FN antibody was added for 90 minutes at room temperature. Wells were washed and then incubated with a horseradish peroxidase-conjugated secondary antibody. After washing was completed, peroxidase activity was quantified using 2,2'-azino-bis-(3-ethylbenthiazoline-6-sulfonic acid). Measurements were done at 405 nm (A405) using a SpectraMax M5 microplate reader (Molecular Device, Sunnyvale, CA).
Bound FN was detected with an anti-FN antibody followed by HRP-conjugated secondary antibody, and ABTS as described in Methods. The absorbance at 405nm was quantitated.

[2] = test system: U937 cells / HUVECs; test: Monocyte U937 adhesion to HUVECs; format: cell-based, human; details: HUVECs treated with 10 ng/ml TNF-α; calcein-AM U937 5x10^5 cells/well, 30 minutes at 37°C; fluorescence 485/535; mean ± SD
Description: For in vivo experiments, the data are shown as the mean ± SEM. For in vitro experiments, the data shown are the means ± SD of a representative experiment, at least 3 independent experiments were performed. One-way ANOVA with post-hoc testing were used for data analysis with GraphPad Prism software (GraphPad, San Diego, CA). If normality test failed, nonparametric Kruskal-Wallis test followed by Dunn's post-hoc test were used. P > 0.05 was not considered significant.

[3] = test system: VCAM-1; test: Western blot of VCAM-1 in TNF-α-treated HUVECs; format: cell-based, human; details: in words
Description: Human umbilical vein endothelial cells (HUVECs) and A7r5 SMCs were provided by Resource Center (SB3, NSC 100-2325-B-080-001), National Research Program for Biopharmaceuticals (Hsinchu, Taiwan). HUVECs were maintained in M199 (Life Technologies, Carlsbad, CA) with 25U/ml heparin (Sigma-Aldrich, St. Louis, MO), 10% fetal bovine serum (FBS) and endothelial cell growth supplement (ECGS; Millipore, Billerica, MA). A7r5 SMCs were grown in Dulbecco’s Modified Eagle’s Medium (DMEM) containing high glucose, supplemented with 10% fetal bovine serum. Human U937 cells were grown in RPMI1640 with 10% FBS.
Tissues or cells were homogenized with RIPA buffer supplemented with protease inhibitor cocktail (Sigma-Aldrich, St. Louis, MO). Cell lysates were spun at 12,000 rpm for 15 min at 4°C, then electrophoresed on 10% SDS-PAGE gel and transferred to nitrocellulose. […]
Fig 8 R1R2 decreases TNF-α-induced monocyte U937 cell adhesion to HUVECs and transendothelial migration and reduces ICAM-1 and VCAM-1 levels. […] Calcein-AM labeled U937 monocyte adhesion to TNF-α HUVECs was quantitated by fluorescence intensity. Microscopic images showing U937 monocytes adhering to HUVECs as assessed by in vitro adhesion assay. […]

GLNGENQKEPEQGERGEAGPPLSGLSGNNQGRPSLPGLNGENQKEPEQGERGEAGPP [R1R2]
effect on FN-collagen type I binding [1]: blocked the binding of FN to collagen type I in a dose-dependent manner | U937 adhesion to HUVECs [2]: 197697 ± 34184 cells per cm^2 | VCAM-1 expression on HUVECs [3]: significantly decreased
